# From patent US12324927B2, “Methods and systems for photodynamic therapy calculations” (THE TRUSTEES OF THE UNIVERSITY OF PENNSYLVANIA, priority 2018, dated 2025)
# Entries after “also recorded” stand apart in the source; their conditions may differ.
# Experiments:
# [1] = Photofrin concentration and PDT dose at pleural cavity sites measured by fluorescence with 4-channel PDT dose dosimeter during Photofrin-mediated pleural PDT; design: species or system human; conditions: in vivo, all measurement sites, 630 nm, 60 J cm^−2
# [2] = Clinical ROSED during Photofrin-mediated pleural PDT (light fluence, Photofrin concentration, DCS blood flow); assay type: in vivo, human
# Experimental: Patients with pathologically confirmed epithelioid malignant pleural mesothelioma were enrolled in a phase II randomized clinical trial of extended pleurectomy/decortication with or without Photofrin-mediated PDT. Photofrin (provided by Pinnacle Biologics, Chicago, IL, USA) was administered at 2 mg per kg of body weight as an intravenous infusion approximately 24 hours prior to the anticipated time of intra-operative PDT. After surgically resecting all gross disease, PDT treatment was performed with 630 nm light to a total fluence of 60 J/cm^2 as previously described (24-28). Briefly, the pleural cavity was filled with diluted Intralipid solution to aid with light scattering and 60 J/cm^2 630 nm light was delivered to the pleural cavity via an optical fiber inserted into modified endotracheal tube filled with 0.1% Intralipid. Homogeneous light delivery is accomplished by continuously moving the light source around the pleural cavity b with continuous feedback monitoring of light fluence rate and cumulative fluence provided by 8 isotropic detectors (Medlight, Switzerland) sutured to the chest wall. Four of the eight isotropic detectors were used to monitor the light dose and Photofrin fluorescence simultaneously. Long pass filters (Semrock, Inc., Rochester, NY, USA) were used to block the treatment light before the fluorescence was recorded by 4 single channel spectrometers (Exemplar, B&W Tek, Inc., Newark, DE, USA).
# PDT dose dosimeter consists of photodiodes for light fluence rates measurements and spectrometers for fluorescence measurements. More details about PDT dosimeter and the quantification of absolute Photofrin concentration from measured fluorescence spectra can be found in (19).
# Measurement of blood flow during clinical PDT: DCS monitoring of tissue blood flow during pleural PDT was implemented using a custom built DCS contact probe as shown in FIG. 15B. The contact probe consists of a side-firing multimode source fiber and three single mode detector fibers polished at 45°. Light from a continuous wave 785-nm laser with long coherence length was delivered through the source fiber, and the reflected diffuse light was collected using the detector fibers located at 0.4, 0.7 and 1.0-cm from the source fiber. Three single photon counting avalanche photodiodes were used to detect the diffuse light in parallel. The DCS probe was mounted onto a clear acrylic rectangle pad with small holes at each corner that allowed it to be sutured adjacent to one of the isotropic detectors measuring light fluence rate and photosensitizer fluorescence data. Tissue blood flow was measured continuously throughout the PDT treatment. The study started with one DCS contact probe for the first 2 patients, and it was later expanded for the next 5 patients to include the second DCS contact probe to enable simultaneous measurements of blood flow at two different pleural sites.
# Calculation of [ROS]rx using ROSED: The PDT process is described by a set of kinetic equations which can be simplified to compute the production of [ROS]rx (4, 8, 9, 13). These equations are dependent on the temporal and spatial distribution of light fluence rate (ϕ), photosensitizer concentration ([S0]), ground state oxygen concentration ([^3O2]), oxygen supply rate (g), and the photosensitizer-specific reaction-rate parameters (δ, β, σ, and ξ). The relevant equations are: […]
# Since Photofrin concentration and tissue oxygen were measured in this study, only Eq. (A3) is needed to calculate for [ROS]rx. For the calculation of [ROS]rx, the term on the right-hand side of Eq. (A3) is integrated over the time course of PDT treatment using the measured value of [^3O2], [S0], and light fluence rate. In vivo light fluence rate distribution can be estimated from the in-air light fluence rate using a 6-parameter analytic expression (29). Tissue optical properties needed for this calculation were obtained from diffuse reflectance measurements using the multi-fiber contact probe. […]
# [3] = 10 min mock treatment in liquid tissue-simulating phantom with moving light source; assay type: physicochemical; conditions: 3 mg kg^−1 Photofrin, 0-70 mW cm^−2
# Experimental: Excitation light intensity varies vastly during PDT as the light source was constantly circulated around in the lung cavity by the physician. To test the performance of the PDT dosimetry system in measuring Photofrin fluorescence with varying excitation light intensities, a 10 min mock treatment was performed using liquid tissue-simulating phantom (μa=0.3 cm^−1 and μ′s=9.6 cm^−1) with known Photofrin concentration of 3 mg kg^−1 and a moving light source. The fluorescence spectra were measured at the surface of the phantom using isotropic detectors as described above. The treatment started with the treatment light wand positioned at a fixed distance above the phantom for 1 min. The average fluence rate measured on the surface was 50 mW cm^−2. Then the light wand was moved randomly over the top of the phantom to simulate the variations in the light fluence rate due to the movement of treatment light source in the pleural cavity during PDT treatment. […] The Photofrin concentrations obtained from measured Photofrin fluorescence spectra using data analysis method described above are plotted as a function of treatment time as shown in FIG. 4B. Each data point represents Photofrin concentration obtained from one fluorescence spectrum and the solid lines represent the average Photofrin concentration calculated for every 1 min of data. […]
# [4] = average of 12 sites, 7 patients
substance,measurement,setting,value
Photofrin,photobleaching of Photofrin during PDT treatment,[1],no significant photobleaching; also recorded: did not change significantly; also recorded: negligible photobleaching
same,range of calculated [ROS]rx,"[2]; 12 sites, 7 patients",0.31−1.17 mM
same,photobleaching (mean Photofrin concentrations during PDT),[2]; all measurement sites and all patients,no sign of photobleaching
same,[ROS]rx,"[2]; at surface, per patient and pleural site, ROSED with blood-flow-derived oxygen, pleural apex",0.59 mM
same,mean (standard deviation) calculated [ROS]rx,[2]; [4],0.59 ± 0.25 mM
same,mean Photofrin concentration of all pleural tissues,[2]; [4],6.2 ± 2.1 mg/kg
same,[Photofrin],"[2]; mean corrected concentration per patient and pleural site, 2 mg per kg i.v. about 24 h before PDT, pleural apex",3.9 mg/kg
same,photobleaching of Photofrin during mock treatment,[3],negligible photobleaching
